For 38 molecules, Activity results are on record in ChEMBL document CHEMBL1772964, “Structural requirements of flavonoids for the adipogenesis of 3T3-L1 cells” (Bioorg Med Chem, 2011).

The structures appear in SMILES notation.

Data set [1] concerns 3T3-L1. The data set is described as follows: Induction of adipogenesis in mouse 3T3L1 cells assessed as increase in triglyceride level at 1 uM on day 8 relative to control. Type of data set: functional.
The test system of data set [2] is 3T3-L1. The data set is described as follows: Induction of adipogenesis in mouse 3T3L1 cells assessed as increase in triglyceride level at 3 uM on day 8 relative to control. Type of data set: functional.
The test system of data set [3] is 3T3-L1. In words: Induction of adipogenesis in mouse 3T3L1 cells assessed as increase in triglyceride level at 10 uM on day 8 relative to control. It is filed as functional.
Data set [4] deals with 3T3-L1. The data set is described as follows: Induction of adipogenesis in mouse 3T3L1 cells assessed as increase in triglyceride level at 30 uM on day 8 relative to control. Type of data set: functional.
Data set [5] deals with 3T3-L1. The data set is described as follows: Induction of adipogenesis in mouse 3T3L1 cells assessed as increase in triglyceride level at 0.3 uM on day 8 relative to control. Type of data set: functional.
Data set [6] has as its system 3T3-L1. In words: Cytotoxicity in mouse 3T3L1 cells assessed as reduction in triglyceride accumulation at 30 uM. To be noted: 3t3-l1, 30 µM. Type of data set: cell-based.

Turning to `COc1cc(O)c2c(=O)c(OC)c(-c3ccccc3)oc2c1`, the Activity in data set [1] was 13.3%; in data set [2] it was 13.7%; in data set [3], 14.2%; in data set [4], 17.7%.
Consider `O=c1cc(-c2ccc(O)c(O)c2)oc2ccccc12`, for which the Activity is given as 5.9% in data set [1], 13.8% in data set [2], 9.8% in data set [3] and -21% in data set [4].
Turning to `O=c1cc(-c2ccc(O)cc2)oc2cc(O)ccc12`, the Activity was -8.1% in data set [1], -3.9% in data set [2], -1.5% in data set [3] and -5.7% in data set [4].
`O=c1cc(-c2ccc(O)c(O)c2)oc2cc(O)ccc12`: the Activity in data set [1] is 4.5%; in data set [2], 9%; in data set [3], 14.8%; in data set [4], -1.7%.
Take `COc1ccc(-c2cc(=O)c3c(O)cc(OC)cc3o2)cc1`: the Activity came to 19% in data set [1]; 12.2% in data set [2]; 5.8% in data set [3]; 6.8% in data set [4]; 7.7% in data set [5].
In the case of `COc1ccc2c(c1)OC(c1ccc(O)cc1)CC2=O` (centres undefined), the Activity was -1.2% in data set [1], 2.2% in data set [2], 2.6% in data set [3] and 13.5% in data set [4].
In the case of `COc1cc(OC)c2c(=O)c(OC)c(-c3ccccc3)oc2c1`, the Activity in data set [1] was determined as 9%; in data set [2], 10.4%; in data set [3], 13.2%; in data set [4] it was 6.6%.
`COc1ccc(-c2cc(=O)c3ccc(OC)cc3o2)cc1` [4,7-DIMETHOXYFLAVONE]: the Activity was 1.2% in data set [1], 3.4% in data set [2], 4.3% in data set [3] and 6.3% in data set [4].
For the molecule `O=c1cc(-c2ccccc2)oc2cc(O)ccc12` [7-HYDROXYFLAVONE], the Activity is 12.2% in data set [1], 13.7% in data set [2], 17.1% in data set [3] and 5.3% in data set [4].
For `Oc1cc(O)c2c(c1)O[C@H](c1ccc(O)c(O)c1)[C@H](O)C2` [(-)-EPICATECHIN], the Activity in data set [1] is recorded as 3.7%; in data set [2], 6.1%; in data set [3], -7.2%; in data set [4], -0.6%.
Turning to `O=c1cc(-c2ccc(O)cc2)oc2cc(O)cc(O)c12` [APIGENIN], the Activity in data set [1] is 4.5%; in data set [2], 4.9%; in data set [3], 7%; in data set [4], -7.7%.
Consider `O=c1c(O[C@@H]2O[C@H](CO)[C@@H](O)[C@H](O)[C@H]2O)c(-c2ccc(O)cc2)oc2cc(O)cc(O)c12` [ASTRAGALIN], for which the Activity in data set [1] is recorded as 2.1%; in data set [2] it was 4.7%; in data set [3] it was 8.8%; in data set [4], 10.2%.
For `COc1cc(O)c2c(=O)c(OC)c(-c3ccc(OC)c(O)c3)oc2c1` [AYANIN] the same measures were 2.6%, 16.3%, 18.5% and 0.4%.
For the molecule `O=c1cc(-c2ccccc2)oc2cc(O)c(O)c(O)c12` [BAICALEIN], the Activity in data set [1] was -5.2%; in data set [2], -7.7%; in data set [6], “Toxic”; in data set [3], -21.8%; in data set [4], -37.2%.
Regarding `COc1ccc(-c2coc3cc(O)cc(O)c3c2=O)cc1` [BIOCHANIN], the Activity was 2.6% in data set [1], 6.1% in data set [2], 1.2% in data set [3] and -16.5% in data set [4].
Take `O=C(/C=C/c1ccc(O)c(O)c1)c1ccc(O)cc1O` [BUTEIN]: the Activity in data set [1] was 14.8%; in data set [2], 17.5%; in data set [6] it was “Toxic”; in data set [3] it was -7.3%; in data set [4] it was -80.8%.
For `COc1cc(OC)c2c(=O)cc(-c3ccccc3)oc2c1` [CHRYSIN DIMETHYL ETHER] the same measures were 7.5%, 3.4%, “Toxic”, 6.3% and -88.1%.
As to `Oc1cc(O)c2c(c1)O[C@H](c1ccc(O)c(O)c1)[C@@H](O)C2` [CIANIDANOL], the Activity in data set [1] is -0.5%; in data set [2], 6.4%; in data set [3] it was 7.9%; in data set [4] it was 11.9%.
In the case of `O=c1c(-c2ccc(O)cc2)coc2cc(O)ccc12` [DAIDZEIN], the Activity in data set [1] stood at 2%; in data set [2] it was 6.5%; in data set [3], 8.5%; in data set [4] it was 13.4%.
Take `Oc1cc(O)c2c(c1)O[C@H](c1cc(O)c(O)c(O)c1)[C@H](O)C2` [EPIGALLOCATECHIN]: the Activity was -9.5% in data set [1], -3.8% in data set [2], -10.2% in data set [3] and -19.5% in data set [4].
The matching figures for `O=C1C[C@@H](c2ccc(O)c(O)c2)Oc2cc(O)cc(O)c21` [ERIODICTYOL]: 1.6%, -5%, -10.3% and -10.3%.
Regarding `O=c1c(O)c(-c2ccc(O)c(O)c2)oc2cc(O)ccc12` [FISETIN], the Activity in data set [1] was 4.1%; in data set [2], -2.4%; in data set [3], -8.8%; in data set [4], -2.7%.
`O=C1CC(c2ccccc2)Oc2ccccc21` (centres undefined) [FLAVANONE]: the Activity is reported as -1.9% in data set [1], 5.1% in data set [2], 2.5% in data set [3] and 1% in data set [4].
The matching figures for `O=c1cc(-c2ccccc2)oc2ccccc12` [FLAVONE]: -2.6%, -6.8%, -5.2% and -10.9%.
For `O=c1c(O)c(-c2ccccc2)oc2ccccc12` [FLAVONOL], the Activity in data set [1] is on record as -12.6%; in data set [2], -10%; in data set [6], “Toxic”; in data set [3], -17.6%; in data set [4], -31.6%.
As to `O=c1c(-c2ccc(O)cc2)coc2cc(O)cc(O)c12` [GENISTEIN], the Activity in data set [1] is recorded as -4.3%; in data set [2] it was -4.3%; in data set [3], -17.6%; in data set [4], -19.2%.
Consider `O=c1c(O)c(-c2ccc(O)c(O)c2)oc2c(O)c(O)cc(O)c12` [GOSSYPETIN], for which the Activity in data set [1] is 17.5%; in data set [2], -2.9%; in data set [3] it was -6.7%; in data set [4], -9.5%.
The matching figures for `O=C(/C=C/c1ccc(O)cc1)c1ccc(O)cc1O` [ISOLIQUIRITIGENIN]: 2.7%, 4%, -0.7% and -33.7%.
In the case of `O=c1c(O[C@@H]2O[C@H](CO)[C@@H](O)[C@H](O)[C@H]2O)c(-c2ccc(O)c(O)c2)oc2cc(O)cc(O)c12` [ISOQUERCETIN], the Activity is recorded as -2.2% in data set [1], 0.1% in data set [2], -0.2% in data set [3] and -2.4% in data set [4].
`O=c1c(O)c(-c2cc(O)c(O)c(O)c2)oc2cc(O)cc(O)c12` [MYRICETIN]: the Activity in data set [1] is recorded as 4.3%; in data set [2], 2.7%; in data set [3], -0.7%; in data set [4] it was 5.6%.
`COc1ccc(-c2cc(=O)c3c(OC)c(OC)c(OC)c(OC)c3o2)cc1OC` [NOBILETIN]: the Activity is reported as 15.3% in data set [1]; 12.6% in data set [2]; 10.7% in data set [3]; -6.7% in data set [4]; 14.1% in data set [5].
With `COc1cc(O)c2c(=O)c(O)c(-c3ccc(OC)c(O)c3)oc2c1` [OMBUINE], the Activity in data set [1] was -2.1%; in data set [2], 5.9%; in data set [3] it was 4.6%; in data set [4], 24.7%.
Regarding `O=c1c(O)c(-c2ccc(O)c(O)c2)oc2cc(O)cc(O)c12` [QUERCETIN], the Activity came out at 7% in data set [1], 5.8% in data set [2], 3% in data set [3] and 3.9% in data set [4].
Turning to `COc1cc(O)c2c(=O)c(OC)c(-c3ccc(OC)c(OC)c3)oc2c1` [RETUSIN], the Activity is given as 3.8% in data set [1], 11.2% in data set [2], 21% in data set [3] and 3.8% in data set [4].
As to `COc1cc(O)c2c(=O)c(O)c(-c3ccc(O)c(O)c3)oc2c1` [RHAMNETIN], the Activity in data set [1] was 19%; in data set [2], 1.9%; in data set [3], 2.4%; in data set [4], -21.4%; in data set [5] it was 15.5%.
For `COc1cc(O)c2c(=O)cc(-c3ccccc3)oc2c1` [TECHTOCHRYSIN], the Activity in data set [1] was 7.4%; in data set [2], 10.7%; in data set [3], 10.4%; in data set [4], 17.5%.
As for `COc1cc(OC)c2c(=O)cc(-c3ccc(OC)c(OC)c3)oc2c1` [TETRAMETHYLLUTEOLIN], the Activity in data set [1] is reported as 2.6%; in data set [2], 3.1%; in data set [3], 7.4%; in data set [4] it was -15.3%.
Turning to `COc1c(O)cc(O)c2c(=O)cc(-c3ccccc3)oc12` [WOGONIN], the Activity in data set [1] is given as 7.8%; in data set [2] it was 9.6%; in data set [3], 19.2%; in data set [4], 16.6%.
